Values belong to the compound of their own block, whether it stands above or below them.
Columns and labels:
M1 = target: T1, M1 (Homo sapiens, UniProt P11229); experiment: M1 PAM activity of oxidative metabolites; assay type: cell-based; settings: in words
T1 construct: expressed in transfected cells
T1 sequence (P11229 1-460): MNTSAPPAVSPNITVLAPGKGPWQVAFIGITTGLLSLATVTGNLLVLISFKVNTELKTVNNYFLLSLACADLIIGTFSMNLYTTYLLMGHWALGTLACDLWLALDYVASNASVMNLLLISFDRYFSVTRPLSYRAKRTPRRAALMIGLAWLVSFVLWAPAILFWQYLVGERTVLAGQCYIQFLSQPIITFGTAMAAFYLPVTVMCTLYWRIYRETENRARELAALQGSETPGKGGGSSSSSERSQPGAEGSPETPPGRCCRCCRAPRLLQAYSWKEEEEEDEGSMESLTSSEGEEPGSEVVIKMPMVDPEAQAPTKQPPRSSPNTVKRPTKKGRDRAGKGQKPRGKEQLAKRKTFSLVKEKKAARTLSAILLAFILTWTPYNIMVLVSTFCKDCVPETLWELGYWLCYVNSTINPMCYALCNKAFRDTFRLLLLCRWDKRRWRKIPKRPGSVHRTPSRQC
Protocol: Procedures for Biological Experiments
Calcium mobilization assays:
All functional cell-based assays were performed in stable Chinese Hamster Ovary (CHO) cell lines constitutively expressing human M5 or human M1 receptors. For full muscarinic selectivity, CHO cells expressing human M3, human M2 plus Gqi5 or human M4 plus Gqi5 were used. Cells were plated at 15,000 cells per 20 µL per well in black 384-well, TC-treated, clear-bottomed plates (Greiner) in Ham’s F12 medium supplemented with 10% FBS and 20 mM HEPES. Cells were incubated overnight at 37 °C under 5% CO2. The following day, the medium was removed and replaced with 1.2 µM Fluo-4 AM (Invitrogen) in assay buffer (Hank’s Balanced Salt Solution supplemented with 20 mM HEPES and 2.5 mM Probenecid, pH 7.4) and the cells were incubated for 50 minutes at 37 °C under 5% CO2. Dye was then removed and replaced with 20 µL of fresh assay buffer. Test compounds at a 10 mM concentration in DMSO were serially diluted in DMSO (either 1:3 or 1:5 dilution) to create a 10-point concentration series. The DMSO solutions were then diluted in assay buffer resulting in compound solutions at 2-times the final assay concentration with the highest assay concentration of 30 µM. The compound plate, cell plate, and plates containing EC20 and EC80 acetylcholine concentrations were placed in a Hamamatsu FDSS 6000 or 7000 kinetic imaging plate reader equipped to measure Ex480/Em540 fluorescence. Data were collected at 1 frame per second. After 2 seconds of collecting baseline fluorescence, 20 µL of the compound solutions were added to the cell plate. This was followed by the addition of an EC20 concentration of acetylcholine at 142 seconds. […] The fluorescence signal was collected for a total of 300 seconds. […] Data were imported and analyzed in Dotmatics Informatics software. by normalizing all data in the individual kinetic traces to the initial fluorescence read. The magnitude of each agonist addition was then determined and normalized to the average maximum response. […] The IC50 determined using the EC80 of acetylcholine is the value reported. […]

[1] = Hepatocyte metabolite identification (rat); assay type: in vitro ADME; settings: rat hepatocytes; 2 from 1, 4 from 3, 6 from 5
Protocol: (§1) Prior to full characterization of deuterated analogues 3 and 5, they were incubated in rat, dog, monkey, and human hepatocytes, along with 1, to determine the amount of parent remaining, as well as the degree of undesired oxidative metabolites 2, 4, and 6 (Figure 2). […] For the gem-dideutero congener 3, metabolic stability was improved in vitro. […] Thus, in hepatocytes in vitro, the kinetic isotope effect engendered greater metabolic stability of the labile hot spot on the lactam. It remained to be seen if this effect would translate in vivo, but we first had to assess the impact of the deuterated analogues on molecular pharmacology, in vitro DMPK, standard low-dose in vivo DMPK and, if warranted, in vivo efficacy in a rat novel object recognition (NOR) behavioral assay.

[2] = Hepatocyte metabolite identification (dog); assay type: in vitro ADME; settings: dog hepatocytes; 2 from 1, 4 from 3, 6 from 5
Protocol: as §1

[3] = Hepatocyte metabolite identification (monkey); assay type: in vitro ADME; settings: monkey hepatocytes; for % Total Peak Area, oxidative metabolite formed: 2 from 1, 4 from 3, 6 from 5
Protocol: as §1

[4] = Hepatocyte metabolite identification (human); assay type: in vitro ADME; settings: human hepatocytes; for % Total Peak Area, oxidative metabolite formed: 2 from 1, 4 from 3, 6 from 5
Protocol: as §1

[5] = set-up: method as in doi:10.1002/alz.045339, doi:10.1016/j.jagp.2021.01.038; settings: humans, phase I, upon increasing dose of 1; cited from earlier work
[6] = Dog MTD with pharmacokinetics study; assay type: in vivo; settings: dog MTD; for ratio AUC (%) / ratio Cmax (%): 6 relative to 5; for AUC / Cmax: plasma
From the text: (§2) To this end, we prepared a 200 g lot of PAM 5 and performed, in parallel, a dog maximum tolerated dose (MTD) with a pharmacokinetics study and a 14-day rat exploratory toxicology and toxicokinetic study, quantifying plasma Cmax and AUC for both parent 5 and metabolite 6. […] Moreover, while exposure increased with dose, it was nonlinear. […] The series was terminated based on (1) poor and less than dose-proportional increases in systemic exposure, (2) lack of a kinetic isotope effect to diminish production of 6 in dogs and rats, and (3) strong likelihood of even higher concentrations of 6 to be present in man.

[7] = Rat 14-day exploratory toxicology and toxicokinetic study; assay type: in vivo; settings: rat 14-day study; for ratio AUC (%) / ratio Cmax (%): 6 relative to 5
From the text: as §2

[8] = day 14, 300 mg/kg PO of 5, plasma
[9] = day 14, 750 mg/kg PO of 5, plasma
[10] = day 14, 1500 mg/kg PO of 5, plasma

- M1 PAM activity (M1): inactive
- % Total Peak Area, oxidative metabolite formed [1]: 23.7%
- % Total Peak Area, oxidative metabolite formed [2]: 28.3%
- % Total Peak Area, oxidative metabolite formed [3]: 74.3%
- % Total Peak Area, oxidative metabolite formed [4]: 34.9%
SMILES: Cn1cc2c(-c3cc(F)c(CN4C(=O)c5cccnc5C4O)c(F)c3)cccc2n1 (stereo not shown) [compound 2]
- share of the total drug-related area under the curve (AUC) [5]: > 50%

SMILES: [2H]C1(O)c2ncccc2C(=O)N1Cc1c(F)cc(-c2cccc3nn(C([2H])([2H])[2H])cc23)cc1F (stereo not shown) [compound 6]
- M1 PAM activity (M1): inactive
- % Total Peak Area, oxidative metabolite formed [1]: 8.1%
- % Total Peak Area, oxidative metabolite formed [2]: 4.1%
- % Total Peak Area, oxidative metabolite formed [3]: 21%
- % Total Peak Area, oxidative metabolite formed ([3]; listed as VU6045587): 21.0%
- % Total Peak Area, oxidative metabolite formed [4]: 4.9%
- ratio AUC (%) ([6]; 30 mg/kg PO of 5): 18%
- ratio Cmax (%) ([6]; 30 mg/kg PO of 5): 19%
- AUC ([6]; 30 mg/kg PO of 5): 6240 ng·h/mL
- Cmax ([6]; 30 mg/kg PO of 5): 455 ng/mL
- ratio AUC (%) ([6]; 300 mg/kg PO of 5): 21%
- ratio Cmax (%) ([6]; 300 mg/kg PO of 5): 23%
- AUC ([6]; 300 mg/kg PO of 5): 14100 ng·h/mL
- Cmax ([6]; 300 mg/kg PO of 5): 818 ng/mL
- ratio AUC (%) ([6]; 1000 mg/kg PO of 5): 19%
- ratio Cmax (%) ([6]; 1000 mg/kg PO of 5): 17%
- AUC ([6]; 1000 mg/kg PO of 5): 19200 ng·h/mL
- Cmax ([6]; 1000 mg/kg PO of 5): 972 ng/mL
- ratio AUC (%) ([7]; day 14, 300 mg/kg PO of 5): 28%
- ratio Cmax (%) ([7]; day 14, 300 mg/kg PO of 5): 30%
- AUC at 14 days [7, 8]: 89500 ng·h/mL
- Cmax at 14 days [7, 8]: 6740 ng/mL
- ratio AUC (%) ([7]; day 14, 750 mg/kg PO of 5): 23%
- ratio Cmax (%) ([7]; day 14, 750 mg/kg PO of 5): 23%
- AUC at 14 days [7, 9]: 125000 ng·h/mL
- Cmax at 14 days [7, 9]: 7340 ng/mL
- ratio AUC (%) ([7]; day 14, 1500 mg/kg PO of 5): 28%
- ratio Cmax (%) ([7]; day 14, 1500 mg/kg PO of 5): 32%
- AUC at 14 day [7, 10]: 143000 ng·h/mL
- Cmax at 14 days [7, 10]: 9890 ng/mL

- M1 PAM activity (M1): inactive
- % Total Peak Area, oxidative metabolite formed [1]: 7.8%
- % Total Peak Area, oxidative metabolite formed [2]: 5.5%
- reduction in oxidative metabolite production versus 2 from 1 [3]: > 50%
- % Total Peak Area, oxidative metabolite formed [3]: 30.3%
- reduction in oxidative metabolite production versus 2 from 1 [4]: 50%
- % Total Peak Area, oxidative metabolite formed [4]: 15.2%
SMILES: [2H]C1(O)c2ncccc2C(=O)N1Cc1c(F)cc(-c2cccc3nn(C)cc23)cc1F (stereo not shown) [compound 4]
